These results are taken from PMC11984924, “Dipeptidic Phosphonates: Potent Inhibitors of Pseudomonas aeruginosa Elastase B Showing Efficacy in a Murine Keratitis Model” (Advanced Science, 2025).

Some results are limits rather than exact numbers.

A word on the inhibition: it is the share of the control response that was lost under treatment.

One data set deals with 44 key molecular targets. The data set is described as follows: SafetyScreen44 in vitro panel (whole panel). More on the design: species or system human. The conditions noted are these: 100 µM. From the text:
(§1) Moreover, we explored the safety profile of frontrunner (R)‐30 in more detail in order to detect additional crucial off‐target interactions. For this purpose, we employed the SafetyScreen44 in vitro panel comprising selected binding, inhibition and uptake assays.^[ [35] ^] The panel is a specialized pharmacological profiling tool that tests compounds against 44 key molecular targets, aiming to identify potential safety risks early in drug discovery. […]
(§2) The off-target Safety Screen44TM was performed by the CRO Eurofins Cerep SA (Celle-
(§3) L'Evescault, France) according to their protocols.[13] […]
(§4) MMP-1 MMP-2 MMP-3 TACE (ADAM17)
(§5) Compound [% inhibition at [% inhibition at [% inhibition at [% inhibition at 100

In another data set the target is T1, hERG potassium channel (Homo sapiens, UniProt Q12809).
T1 construct: Eurofins Cerep SA (CRO)
T1 sequence (Q12809 whole entry): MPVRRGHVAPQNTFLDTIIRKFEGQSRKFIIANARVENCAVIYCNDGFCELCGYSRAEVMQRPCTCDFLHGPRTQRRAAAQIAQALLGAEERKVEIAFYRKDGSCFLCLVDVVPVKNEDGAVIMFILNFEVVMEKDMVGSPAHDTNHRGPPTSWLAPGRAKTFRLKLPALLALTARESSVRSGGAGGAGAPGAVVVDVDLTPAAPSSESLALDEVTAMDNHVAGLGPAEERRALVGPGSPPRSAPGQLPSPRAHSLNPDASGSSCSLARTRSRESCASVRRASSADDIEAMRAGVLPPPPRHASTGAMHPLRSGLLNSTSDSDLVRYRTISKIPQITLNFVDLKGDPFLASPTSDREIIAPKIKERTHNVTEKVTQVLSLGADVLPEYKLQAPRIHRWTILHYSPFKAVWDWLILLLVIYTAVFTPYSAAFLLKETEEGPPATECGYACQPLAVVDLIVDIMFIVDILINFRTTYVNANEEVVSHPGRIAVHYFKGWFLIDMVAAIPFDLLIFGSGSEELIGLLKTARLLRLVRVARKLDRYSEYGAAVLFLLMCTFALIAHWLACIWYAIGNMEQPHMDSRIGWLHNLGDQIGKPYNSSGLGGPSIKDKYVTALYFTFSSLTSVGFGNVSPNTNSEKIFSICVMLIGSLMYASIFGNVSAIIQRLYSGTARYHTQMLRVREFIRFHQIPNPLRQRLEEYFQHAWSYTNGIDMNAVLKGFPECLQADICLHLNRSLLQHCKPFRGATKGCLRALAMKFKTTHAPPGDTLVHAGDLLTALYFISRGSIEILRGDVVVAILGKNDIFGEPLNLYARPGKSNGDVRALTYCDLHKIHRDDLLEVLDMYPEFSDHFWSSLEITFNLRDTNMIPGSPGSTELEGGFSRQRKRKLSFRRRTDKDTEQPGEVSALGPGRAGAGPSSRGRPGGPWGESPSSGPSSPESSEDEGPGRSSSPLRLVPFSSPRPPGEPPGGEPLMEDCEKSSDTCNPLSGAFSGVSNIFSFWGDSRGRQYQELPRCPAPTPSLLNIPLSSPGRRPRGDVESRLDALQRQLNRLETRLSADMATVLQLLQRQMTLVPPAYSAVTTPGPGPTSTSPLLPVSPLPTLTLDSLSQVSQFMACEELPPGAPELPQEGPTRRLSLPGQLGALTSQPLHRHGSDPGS
The data set is described as follows: SafetyScreen44: hERG binding.
Text: as §1, §2, §3, §4, §5
For orientation: hERG is a cardiac potassium channel; its block is linked to QT prolongation.

The next data set concerns sodium channel. The data set is described as follows: SafetyScreen44: sodium channel binding. More on the design: species or system human. The conditions noted are these: 100 µM.
Text: as §1, §2, §3, §4, §5

Data set [1] addresses T2, 5‐hydroxytryptamin transporter (5‐HTT) (Homo sapiens, UniProt P31645).
T2 construct: Eurofins Cerep SA (CRO)
The data set is described as follows: SafetyScreen44: 5-HTT binding.
Text: as §1, §2, §3, §4, §5

A short description of data set [2]: Tolerability study in male CD1 mice, repeated TID intravenous dosing. The conditions noted are these: mouse, 300 and 600 mg/kg/day, 3 days. The format is in vivo. On the procedure:
(§6) Table S8: Percent (%) inhibition of the metabolic activity of three human cell lines HepG2 (hepatocellular carcinoma cells), HEK293 (human embryonic kidney 293 cells) and A549 (lung carcinoma epithelial cells). Results are means and SD of at least two independent ex periments.
(§7) 3.10 Evaluation of Zebrafish embryo toxicity
(§8) The experiment was performed according to a procedure described in the literature with minor modifications using zebrafish embryos of the AB wild -type line at 1 day post fertilization (dpf). A detailed protocol has been given in our recent publication.[16]
(§9) Starting exposure ar 2 dpf. Ten larvae were tested for each condition. Dpf: days post fertilization.
(§10) 3.11 Tolerability study in male CD1 mice
(§11) This in vivo experiment was carried out at the CRO Selvita (Zagreb, Croatia). The study was performed in an AAALAC I- approved Facility. The standard study plan relating to this study was reviewed by the Ethics Committee (CARE- Zagreb) as required by International Laws/Regulations and Croatian Low on Animal Welfare (“The Animal Protection Act”, Official Gazette, NN 135/06 and NN 37/13) and Animal Welfare Officer. Animals were kept in solid […]
The observations and examinations that were made, comprise clinical signs, body weight, food consumption, macroscopy at termination and organ weights. Mortality was recorded twice a day, i.e. in the morning and at the end of the working day.

Data set [3] can be described thus: Stability in rat liver microsomes. Type of data set: in vitro ADME. The conditions noted are these: Wistar, read-out: Rat Liver Microsomes t1/2. The method, then: Samples were stored on ice until the end of the incubation and precipitated protein was removed by centrifugation (15 min, 4 °C, 4,000 g). Concentration of the remaining test […]
compound at the different time points was analyzed by HPLC-MS/MS (TSQ Quantum Access […]
MAX, Thermo Fisher, Dreieich, Germany) and used to determine half -life (t1/2) and intrinsic […]
Species profiling was conducted as above using 0.5 mg/mL pooled mouse, rat or minipig liver microsomes (Xenotech, Kansas City, USA) with 2 mM NADPH and 10 mM MgCl2 and testosterone, verapamil and ketoconazole as reference compounds. […]
(§12) Thermo Fisher, Dreieich, Germany) and used to determine half-life (t1/2).
(§13) Table S2: Additional in vitro ADMET data for selected dipeptides. n.d.: not determined.
(§14) Kinetic Liver S9 Clint [µL/mg/min] Plasma t1/2 [min] LogD7.4 […]
(§15) pH 7.4 [µM] Mouse Human Mouse Human
(In general: Liver microsomes are a subcellular fraction often used to study metabolism.)

The nature of data set [4]: Plasma stability, Göttingen minipig. The conditions noted are these: read-out: Minipig Plasma t1/2. Type of data set: in vitro ADME. On the procedure: (§16) To determine stability in plasma, the compound (1 µM) was incubated with pooled CD -1 […]
(§17) mouse/human/Wistar rat or Göttingen minipig plasma (Neo Biotech, Nanterre, France).
(§18) Samples were taken by mixing aliquots with 4 volumes of acetonitrile containing internal […]
(§19) standard (125 nM diphenhydramine). The plasma stability of procain, propantheline and diltiazem were determined in parallel to confirm the enzymatic activity. Samples were stored […]
(§20) on ice until the end of the incubation and precipitated protein was removed by centrifugation […]
(§21) (15 min, 4 °C, 4,000 g, two centrifugation steps). Concentration of the remaining test compound at the different time points was analyzed by HPLC-MS/MS (TSQ Quantum Access MAX, […]
as §12, §13, §14, §15

A short description of data set [5]: Plasma stability, Wistar rat. Type of data set: in vitro ADME. The following applies: read-out: Rat Plasma t1/2. The method, then: as §16, §17, §18, §19, §20, §21, §12, §13, §14, §15
A further data set relates to zebrafish embryos. Put plainly: Zebrafish embryo toxicity. The format is in vivo. The conditions noted are these: up to 100 µM, up to five days post fertilization. The method, then: as §6, §7, §8, §9, §10, §11
bottom cages ([…] S.p A., Italy, Type III polysulphone cage); 425 mm x 266 mm x 180 mm; 3 animals in each cage. The animals were kept on 4 cm thick layer of corn cob grit, […]
(1 picture or pasted object on this page, not shown here)

T2 sequence (P31645 whole entry): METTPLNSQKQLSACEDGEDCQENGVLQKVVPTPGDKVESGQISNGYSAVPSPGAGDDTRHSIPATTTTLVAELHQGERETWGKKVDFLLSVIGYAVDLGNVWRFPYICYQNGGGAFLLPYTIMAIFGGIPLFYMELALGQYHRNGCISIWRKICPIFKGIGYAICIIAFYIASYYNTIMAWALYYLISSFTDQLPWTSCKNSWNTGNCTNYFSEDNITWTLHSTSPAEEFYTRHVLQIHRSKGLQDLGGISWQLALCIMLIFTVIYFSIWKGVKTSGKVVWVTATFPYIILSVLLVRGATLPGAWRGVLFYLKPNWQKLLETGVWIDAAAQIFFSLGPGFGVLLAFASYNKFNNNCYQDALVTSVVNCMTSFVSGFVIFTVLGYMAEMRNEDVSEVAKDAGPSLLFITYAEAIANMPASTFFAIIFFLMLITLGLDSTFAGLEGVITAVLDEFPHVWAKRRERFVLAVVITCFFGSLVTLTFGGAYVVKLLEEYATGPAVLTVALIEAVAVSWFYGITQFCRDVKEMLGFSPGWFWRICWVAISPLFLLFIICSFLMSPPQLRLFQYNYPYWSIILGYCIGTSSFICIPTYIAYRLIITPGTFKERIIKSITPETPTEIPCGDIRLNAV

In the case of `CC(=O)c1ccc(NC(=O)[C@@H](NC(=O)[C@@H](CC(C)C)P(=O)(O)O)C(C)C)cc1` [(R)‐30], the “SafetyScreen44: number of targets inhibited” value in the data set with 44 key molecular targets is on record as “ten targets by >50%”. For the same compound, the results for the inhibition at 100 µM (on hERG potassium channel; in [1]) were 79.4% and 84.8%, respectively. Further, in the data set on sodium channel, the “sodium channel binding inhibition” value is recorded as 91.1%. Besides, the “mortality, body weight, clinical signs” value in data set [2] is given as “no treatment–related mortality, nor effects on body weight or clinical signs”.

For `CC(=O)c1ccc(NC(=O)[C@@H](NC(=O)C(CC(C)C)P(=O)(O)O)C(C)C)cc1` (stereo partly drawn) [compound 30], the half-life at 1 µM in data set [3] is > 2 h; in data set [4] it was > 4 h; in data set [5], > 4 h. In addition, in the data set with zebrafish embryos, the Zebrafish embryo toxicity result is reported as “no signs of toxicity”.
